Columns and labels:
IRAK4 [1] = target: T1, IRAK4 (Homo sapiens, UniProt Q9NWZ3); assay: hPBMC IRAK4 degradation flow assay (monocytes); type: cell-based; design: endogenous in cells; host or cells: human PBMCs (monocytes, CD14 positive gate); details: CD14 positive monocytes, 20 h, read-out: hPBMC monocyte DC50 at 20 h
T1 sequence (Q9NWZ3 1-460): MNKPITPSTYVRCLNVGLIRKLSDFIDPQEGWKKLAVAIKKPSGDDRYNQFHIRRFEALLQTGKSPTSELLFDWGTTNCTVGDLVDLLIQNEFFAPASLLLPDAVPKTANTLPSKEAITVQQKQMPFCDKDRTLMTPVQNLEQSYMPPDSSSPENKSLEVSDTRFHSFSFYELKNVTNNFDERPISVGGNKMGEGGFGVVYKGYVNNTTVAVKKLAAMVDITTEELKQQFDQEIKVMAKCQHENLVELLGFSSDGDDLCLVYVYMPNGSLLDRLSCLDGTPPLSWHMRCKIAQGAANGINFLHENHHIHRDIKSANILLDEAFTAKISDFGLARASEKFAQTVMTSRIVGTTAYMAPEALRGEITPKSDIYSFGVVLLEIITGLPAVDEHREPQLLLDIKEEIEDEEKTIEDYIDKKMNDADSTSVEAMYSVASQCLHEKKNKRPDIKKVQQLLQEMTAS
Outline: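 Thawed human PBMCs treated 20 h (or 4 h) at 37° C. with 10-point 5-fold compound dilutions, 0.1% DMSO, then fixed, methanol-permeabilized and stained for IRAK4 and lineage markers by flow, with monocytes gated CD14+. IRAK4 MFI normalized to DMSO and 10 µM control; DC50 and max degradation from 4-parameter logistic fit.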

IRAK4 [2] = target: T1, IRAK4; assay: IRAK4 degradation in OCI-LY10 (MSD, Meso Scale Discovery); type: cell-based; design: endogenous in cells; host or cells: OCI-LY10; details: OCI-LY10 cells, 24 h
Outline: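 OCI-LY10 cells (300,000/well) were treated with an 8-point 1:3 series (top 1 to 10 μM) for 4 to 24 h at 37 °C. IRAK4 in RIPA lysates was quantified by MSD sandwich immunoassay with two anti-IRAK4 antibodies. DC50 was fitted with a three-parameter logistic equation.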

DC50 (IRAK4 [1])	DC50 (IRAK4 [2])	Structure (SMILES)
> 10 µM	1 to 10 µM	CC(C)(O)c1cc2nn([C@H]3CC[C@H](CNCCCCCCc4cncc(-c5cccc(C(=O)Nc6ccc(=O)n(CC(=O)O)c6)c5)c4)CC3)cc2cc1NC(=O)c1cccc(C(F)(F)F)n1 [Compound I-94]
> 10 µM	> 10 µM	CCOC(=O)Cn1cc(NC(=O)c2cc(CCCCCCNC[C@H]3CC[C@H](n4cc5cc(NC(=O)c6cccc(C(F)(F)F)n6)c(C(C)(C)O)cc5n4)CC3)cc(-c3cccnc3)c2)ccc1=O [Compound I-95]
> 10 µM	> 10 µM	CC(C)(O)c1cc2nn([C@H]3CC[C@H](CNCCCCCCc4cc(C(=O)Nc5ccc(=O)n(CC(=O)O)c5)cc(-c5cccnc5)c4)CC3)cc2cc1NC(=O)c1cccc(C(F)(F)F)n1 [Compound I-96]
> 10 µM	1 to 10 µM	CCOC(=O)Cn1cc(NC(=O)c2cccc(-c3cncc(CCCCCCNC[C@H]4CC[C@H](n5cc6cc(NC(=O)c7cccc(C(F)(F)F)n7)c(C(C)(C)O)cc6n5)CC4)c3)c2)ccc1=O [Compound I-97]
> 10 µM	> 10 µM	CCOC(=O)Cn1cc(NC(=O)c2cc(CCCCCCNC[C@H]3CC[C@H](n4cc(NC(=O)c5cnn6ccc(N7C[C@H]8C[C@@H]7CO8)nc56)c(C(F)F)n4)CC3)cc(-c3cccnc3)c2)ccc1=O [Compound I-98]
> 10 µM	> 10 µM	CCOC(=O)Cn1cc(NC(=O)c2cccc(-c3cncc(CCCCCCNC[C@H]4CC[C@H](n5cc(NC(=O)c6cnn7ccc(N8C[C@H]9C[C@@H]8CO9)nc67)c(C(F)F)n5)CC4)c3)c2)ccc1=O [Compound I-99]
